Assay [1] concerns Schistosoma mansoni. Briefly: Antischistosomicidal activity against Schistosoma mansoni egyptian strain assessed as worm mortality at 5 ug/ml after 5 days by stereomicroscopy. It is filed as functional. Conditions: 120 h.
In assay [2] the test system is Schistosoma mansoni. Kind of assay: Antischistosomicidal activity against Schistosoma mansoni egyptian strain assessed as worm mortality after 5 days by stereomicroscopy. It is filed as functional, organism-based. Conditions: for IC90: Schistosoma mansoni, egyptian strain, 120 h.

SMILES strings stand for the structures.

As for `Cn1c2nc3ccccc3c-2c(Cl)c2cc(Br)ccc21`, the mortality at 5 µg/mL in the assay with Schistosoma mansoni [1] amounted to 25%.

In the case of `Cn1c2nc3ccccc3c-2c(NCCc2c[nH]c3ccccc23)c2ccccc21`, in the assay on Schistosoma mansoni [2], the IC50 came out at 2.7 uM/ml and the IC90 was 3.95 µM. In addition, the mortality at 5 µg/mL in the assay on Schistosoma mansoni [1] was determined as 100%.

Regarding `Cn1c2nc3ccccc3c-2c(N2CCOCC2)c2ccccc21`, in the assay on Schistosoma mansoni [1], the mortality at 5 µg/mL was 66.7%.

As for `Cn1c2nc3ccccc3c-2c(NCCCO)c2cc(Br)ccc21`, the mortality at 5 µg/mL in the assay on Schistosoma mansoni [1] came to 66.7%.

Turning to `Cn1c2nc3ccccc3c-2c(N2CCN(CCO)CC2)c2cc(C(F)(F)F)ccc21`, the mortality at 5 µg/mL in the assay with Schistosoma mansoni [1] came to 25%.

Turning to `Cn1c2nc3ccccc3c-2c(NCCCN2CCN(CCCNc3c4c5ccccc5nc-4n(C)c4ccc(Cl)cc34)CC2)c2cc(Cl)ccc21`, in the assay on Schistosoma mansoni [2], the IC50 was 3.42 uM/ml and the IC90 was 5.1 µM. Besides, the mortality at 5 µg/mL in the assay with Schistosoma mansoni [1] is 100%.

For the molecule `Cn1c2nc3ccccc3c-2c(NCCCN2CCN(CCCNc3c4c5ccccc5nc-4n(C)c4ccc(C(F)(F)F)cc34)CC2)c2cc(C(F)(F)F)ccc21`, the mortality at 5 µg/mL with Schistosoma mansoni [1] came to 8.3%.

Take `Cn1c2nc3ccccc3c-2c(Nc2ccc(CCO)cc2)c2ccccc21`: the mortality at 5 µg/mL in the assay with Schistosoma mansoni [1] came out at 58.3%.

Consider `Cn1c2nc3ccccc3c-2c(Nc2ccc(C(F)(F)F)cc2)c2ccccc21`, for which, in the assay on Schistosoma mansoni [2], the IC50 is reported as 3.73 uM/ml and the IC90 was determined as 4.81 µM. For the same molecule, in the assay on Schistosoma mansoni [1], the mortality at 5 µg/mL turned out to be 100%.

As to `Cn1c2nc3ccccc3c-2c(Nc2ccc(CCO)cc2)c2cc(Br)ccc21`, the mortality at 5 µg/mL in the assay on Schistosoma mansoni [1] came to 91.7%.

`Cn1c2nc3ccccc3c-2c(Nc2ccccc2)c2ccccc21`: in the assay with Schistosoma mansoni [2], the IC50 is on record as 3.07 uM/ml and the IC90 was 4.3 µM. For the same molecule, the mortality at 5 µg/mL in the assay on Schistosoma mansoni [1] is 100%.

In the case of `CN1CCN(c2c3c4ccccc4nc-3n(C)c3ccccc23)CC1`, the mortality at 5 µg/mL with Schistosoma mansoni [1] turned out to be 0%.

For `CN1CCN(c2c3c4ccccc4nc-3n(C)c3ccc(C(F)(F)F)cc23)CC1`, in the assay with Schistosoma mansoni [2], the IC50 is 4.61 uM/ml and the IC90 was determined as 6.05 µM. The mortality at 5 µg/mL in the assay on Schistosoma mansoni [1] is 100%.

For `Cn1c2nc3ccccc3c-2c(Cl)c2cc(C(F)(F)F)ccc21`, the mortality at 5 µg/mL in the assay on Schistosoma mansoni [1] was 91.7%.

For `Clc1ccc2nc3[nH]c4ccccc4c3c(Cl)c2c1`, the mortality at 5 µg/mL in the assay with Schistosoma mansoni [1] was 0%.

Consider `CCN(CC)CCCC(C)Nc1c2c3ccccc3nc-2n(C)c2ccc(Cl)cc12` (stereo not drawn), for which, in the assay with Schistosoma mansoni [2], the IC50 is on record as 11.74 uM/ml and the concentration for an effect of 90% (IC90) was determined as 16.8 µM. In addition, the mortality at 5 µg/mL in the assay on Schistosoma mansoni [1] was 100%.

For the molecule `Cn1c2nc3ccccc3c-2c(Cl)c2ccccc21` [11-CHLORONEOCRYPTOLEPINE], the mortality at 5 µg/mL with Schistosoma mansoni [1] is 75%.

`Cn1c2nc3ccccc3c-2cc2ccccc21` [NEOCRYPTOLEPINE]: the mortality at 5 µg/mL in the assay on Schistosoma mansoni [1] is 5%.

As to `O=C(C1CCCCC1)N1CC(=O)N2CCc3ccccc3C2C1` (stereo not drawn) [PRAZIQUANTEL], in the assay on Schistosoma mansoni [2], the IC50 was found to be 0.21 uM/ml and the IC90 was determined as 0.37 µM. Besides, the mortality at 5 µg/mL in the assay on Schistosoma mansoni [1] is 100%.

Source of the values: ChEMBL document CHEMBL3045194, “Neocryptolepine analogues containing N-substituted side-chains at C-11: synthesis and antischistosomicidal activity” (Med Chem Res, 2012).
